Earlier results on one compound are cited in US12201642B2, “Composition for the treatment of COVID-19” (priority 2020, dated 2025).

In data set [1] the test system is influenza A H1N1 virus.
For data set [2], the system named is influenza virus.
The subject of data set [3] is HCMV. Conditions: cultures of smooth muscle cells.

On to `CC(=O)Oc1ccccc1C(=O)O` [Aspirin, Acetylsalicylic acid], for which the antiviral effectiveness entry in data set [1] is “highly effective”. In addition, in data set [2] (as anti-influenza agent), the toxic side-effects entry is recorded as “no toxic side-effects”. The “effect on influenza virus replication” value in data set [2] (in vitro and in vivo) is reported as “efficiently blocks influenza virus replication”. For the same compound, the “reduction of the yield of HCMV (factor)” value in data set [3] was 2-3.
